Data as given in patent publication US11744804B2, “Microcapsule powder stable in gastric acid, method for preparing same, and use thereof” (HOBOOMLIFE BIO-TECHNOLOGY (SHENZHEN) CO., LTD., priority 2021, dated 2023).

Assay: Release test in artificial intestinal juice
Format: physicochemical
Conditions: for Dissolution rate of core material after 1 h / Dissolution rate of core material after 2 h / Dissolution rate of core material after 3 h / Dissolution rate of core material after 4 h: artificial intestinal juice, 37° C., 100 r/min; for Retention rate of NADH before test: before artificial intestinal juice test
Method: A Tablet Four-Usage Tester was used for testing. The tester was started for preheating. The temperature was set at 37° C. A basket shaft and a basket were installed. A positioning ball used for positioning (marked) was put into a dissolution cup (900 mL of prepared artificial intestinal juice was added into each dissolution cup) and fixed. 200 mg of sample 2 and 200 mg of sample 5 in the examples as well as 200 mg of corresponding core materials were taken respectively, wrapped with gauze and put into corresponding baskets. After being rotated at 100 r/min for 1, 2, 3 and 4 h, 1 mL of liquid was taken from each of the dissolution cups. The contents of the core materials in the samples were detected by the same detection method as in Example 1.
Retention rate of core material=(Theoretical embedding amount of core material in sample-Content of core material in artificial intestinal juice detected)/Theoretical embedding amount of core material in sample. The theoretical embedding amount of the core material in the sample is the added amount of the core material in the sample.

Dissolution rate of core material after 1 h [%] | Dissolution rate of core material after 2 h [%] | Dissolution rate of core material after 3 h [%] | Dissolution rate of core material after 4 h [%] | Retention rate of NADH before test [%] | Structure (SMILES)
99.6 | 99.5 | 99.4 | 99.5 | 100 | NC(=O)C1=CN([C@@H]2O[C@H](COP(=O)(O)OP(=O)(O)OC[C@H]3O[C@@H](n4cnc5c(N)ncnc54)[C@H](O)[C@@H]3O)[C@@H](O)[C@H]2O)C=CC1 [NADH, reduced nicotinamide adenine dinucleotide]
98.4 | 99.7 | 99.3 | 99.1 | 100 | NC(=O)C1=CN([C@@H]2O[C@H](COP(=O)(O)OP(=O)(O)OC[C@H]3O[C@@H](n4cnc5c(N)ncnc54)[C@H](OP(=O)(O)O)[C@@H]3O)[C@@H](O)[C@H]2O)C=CC1 [NADPH, reduced nicotinamide adenine dinucleotide phosphate]
